Measured values: US20190110476A1, “NOVEL ISOTHIAZOLAMIDES, PROCESSES FOR THEIR PREPARATION AND THEIR USE AS FUNGICIDES” (priority 2014, published 2019)
Marks after values point to notes of the source that are not given here.

test: Measurement of LogP values by HPLC on reversed phase columns (EEC directive 79/831 Annex V.A8); type: physicochemical
Method in brief: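 LogP measured by reversed-phase HPLC following EEC directive 79/831 Annex V.A8. Lambda-max taken from UV spectra at 200–400 nm at chromatographic peak maxima; diastereoisomer values listed separately.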

LogP | SMILES
1.93[a] | CCOc1c(N)nsc1C(=O)NCc1ccccc1F [I-730]
2.26[a] | CCOc1c(N)nsc1C(=O)NCc1ccc(Cl)cc1 [I-731]
1.82[a] | COc1c(N)nsc1C(=O)NCc1c(F)cc(F)cc1F [I-732]
1.64[a] | COc1c(N)nsc1C(=O)NCc1ccccc1F [I-733]
1.31[a] | COc1c(N)nsc1C(=O)NCC1CCCCO1 (stereo not drawn) [I-734]
2.50[a] | COc1c(N)nsc1C(=O)NCC1CCCCCC1 [I-735]
1.87[a] | COc1c(N)nsc1C(=O)NCC1CCCC1 [I-736]
1.98[a] | COc1c(N)nsc1C(=O)NCc1ccc(Cl)cc1 [I-737]
2.75[a] | CC1CCC(CNC(=O)c2snc(N)c2Cl)CC1 (stereo not drawn) [I-738]
4.29[a] | COc1ccc(CNc2nsc(C(=O)NCC34CCC(CC3)C4)c2Cl)cc1 [I-739]
0.63[a] | Nc1cc(C(=O)NCC2CCCC2O)sn1 (stereo not drawn) [I-774]
0.36[a] | Nc1cc(C(=O)NCC2CCC(O)C2)sn1 (stereo not drawn) [I-775]
2.02[a] | COc1cc(F)ccc1CNC(=O)c1snc(N)c1Cl [I-782]
1.44[a] | N#Cc1ccc(CNC(=O)c2snc(N)c2Cl)cc1 [I-783]
2.09[a] | Cc1cc(F)ccc1CNC(=O)c1snc(N)c1Cl [I-784]
2.12[a] | Nc1nsc(C(=O)NCC2CCCCC2)c1O [I-797]
3.33[a] | Nc1nsc(C(=O)NC2CCCC3CCCCC32)c1Cl (stereo not drawn) [I-808]
2.28[a] | Cc1cc(F)ccc1CNC(=O)c1snc(NC(=O)C(F)F)c1Cl [I-809]
2.89[a] | CCC(=O)N(C(=O)CC)c1nsc(C(=O)NCc2ccc(C#N)cc2)c1Cl [I-810]
1.54[a] | CCC(=O)Nc1nsc(C(=O)NCc2ccc(C#N)cc2)c1Cl [I-811]
2.12[a] | N#Cc1ccc(CNC(=O)c2snc(NC(=O)C(F)(F)F)c2Cl)cc1 [I-812]
1.68[a] | N#Cc1ccc(CNC(=O)c2snc(NC(=O)C(F)F)c2Cl)cc1 [I-813]
1.66[a] | Cc1ccc(CNC(=O)c2snc(N)c2Cl)o1 [I-814]
2.10[a] | CCC(=O)Nc1nsc(C(=O)NCc2ccc(F)cc2OC)c1Cl [I-815]
2.72[a] | Cc1cc(F)ccc1CNC(=O)c1snc(NC(=O)C(F)(F)F)c1Cl [I-816]
2.15[a] | CCC(=O)Nc1nsc(C(=O)NCc2ccc(F)cc2C)c1Cl [I-817]

LogP | SMILES
2.84[a] | C[C@H](NC(=O)c1snc(N)c1Br)C1CCCCC1 [I-818]
2.72[a] | COc1cc(F)ccc1CNC(=O)c1snc(NC(=O)C(F)(F)F)c1Cl [I-819]
2.23[a] | COc1cc(F)ccc1CNC(=O)c1snc(NC(=O)C(F)F)c1Cl [I-820]
2.44[a] | Nc1nsc(C(=O)NCC2CCCCC2Cl)c1Cl (stereo not drawn) [I-821]
2.53[a] | Nc1nsc(C(=O)NCC23CCC(CC2)C3)c1Cl [I-822]
4.33[a] | COc1ccc(CNc2nsc(C(=O)NCC3(OC)CCC(C)CC3)c2Cl)cc1 (stereo not drawn) [I-823]
4.89[a] | CCC1(CNC(=O)c2snc(NCc3ccc(OC)cc3)c2Cl)CCCCC1 [I-824]
4.84[a] | COc1ccc(CNc2nsc(C(=O)NCC3(C)CCC(C)CC3)c2Cl)cc1 (stereo not drawn) [I-825]
1.81[a] | Nc1nsc(C(=O)NCC2(F)CCCC2)c1Cl [I-826]
1.50[a] | Nc1nsc(C(=O)NCC2(F)CCC2)c1Cl [I-827]
2.15[a] | Nc1nsc(C(=O)NCC2(F)CCCCC2)c1Br [I-828]
1.83[a] | Nc1nsc(C(=O)NCC2(F)CCCC2)c1Br [I-829]
1.82[a] | Nc1nsc(C(=O)NCc2ccc(F)cc2)c1Br [I-831]
1.79[a] | Nc1nsc(C(=O)NCc2ccccc2F)c1Br [I-832]
2.21[a] | N#CC(NC(=O)c1snc(N)c1Br)C1CCCCC1 (stereo not drawn) [I-833]
5.03[a] | CCC1(CNC(=O)c2snc(NC(C)C)c2Cl)CCCCC1 [I-834]
3.17[a] | CC1CCC(C)(CNC(=O)c2snc(N)c2Cl)CC1 (stereo not drawn) [I-835]
3.20[a] | CCC1(CNC(=O)c2snc(N)c2Cl)CCCCC1 [I-836]
2.58[a] | COC1(CNC(=O)c2snc(N)c2Cl)CCC(C)CC1 (stereo not drawn) [I-837]
2.68[a] | Nc1nsc(C(=O)NCC2CCC(C(F)(F)F)CC2)c1Br (stereo not drawn) [I-840]
2.11[a] | Nc1nsc(C(=O)NC2CCCCC2)c1Br [I-841]
2.60[a] | CC1(C)CC(CNC(=O)c2snc(N)c2Br)C1 [I-842]
1.92[a] | CCOC(=O)C1CCC(NC(=O)c2snc(N)c2Cl)CC1 (stereo not drawn) [I-843]
2.02[a] | CCOC(=O)C1CCC(NC(=O)c2snc(N)c2Cl)CC1 (stereo not drawn) [I-844]
2.12[a] | CC(=O)N(C(C)=O)c1nsc(C(=O)NCc2ccc(C#N)cc2)c1Cl [I-846]
1.24[a] | CC(=O)Nc1nsc(C(=O)NCc2ccc(C#N)cc2)c1Cl [I-847]

LogP | SMILES
2.92[a] | Nc1nsc(C(=O)NCCC2CCCCC2)c1Cl [I-850]
1.98[a] | Nc1nsc(C(=O)NCCc2ccccc2)c1Cl [I-851]
1.83[a] | Nc1nsc(C(=O)Nc2ccccc2)c1Cl [I-852]
2.23[a] | Nc1cc(C(=O)NCCC2CCCCC2)sn1 [I-853]
1.52[a] | Nc1cc(C(=O)NCCc2ccccc2)sn1 [I-854]
1.41[a] | Nc1cc(C(=O)Nc2ccccc2)sn1 [I-855]
3.83[a] | COc1ccc(CNc2nsc(C(=O)Nc3ccc(F)cc3F)c2Cl)cc1 [I-856]
2.04[a] | Nc1nsc(C(=O)Nc2ccc(F)cc2)c1Cl [I-857]
3.76[a] | COc1ccc(CNc2nsc(C(=O)Nc3ccc(F)cc3)c2Cl)cc1 [I-858]
6.09[a] | COc1ccc(CNc2nsc(C(=O)N(CC3C(C)CCCC3(C)C)C3CC3)c2Cl)cc1 (stereo not drawn) [I-859]
5.31[a] | COc1ccc(CNc2nsc(C(=O)N(C3CC3)C3CCCCC3(C)C)c2Cl)cc1 (stereo not drawn) [I-860]
3.85[a] | COc1ccc(CNc2nsc(C(=O)Nc3cccc(F)c3)c2Cl)cc1 [I-861]
4.15[a] | COc1ccc(CNc2nsc(C(=O)Nc3cc(F)cc(F)c3)c2Cl)cc1 [I-862]
3.30[a] | CC1(C)CCCCC1N(C(=O)c1snc(N)c1Cl)C1CC1 (stereo not drawn) [I-863]
2.07[a] | Nc1nsc(C(=O)Nc2ccc(F)cc2F)c1Cl [I-864]
2.07[a] | Nc1nsc(C(=O)Nc2cccc(F)c2)c1Cl [I-865]
2.54[a] | Nc1nsc(C(=O)Nc2cc(F)cc(F)c2)c1Cl [I-866]
5.22[a] | COc1ccc(CNc2nsc(C(=O)Nc3ccc(Cl)cc3Cl)c2Cl)cc1 [I-867]
4.21[a] | COc1ccc(CNc2nsc(C(=O)Nc3ccc(Cl)cc3)c2Cl)cc1 [I-868]
3.96[a] | COc1ccc(CNc2nsc(C(=O)Nc3cccc4c3C(C)OC4(C)C)c2Cl)cc1 (stereo not drawn) [I-869]
4.94[a] | COc1ccc(CNc2nsc(C(=O)N(Cc3c(C)cc(C)cc3C)C3CC3)c2Cl)cc1 [I-870]
4.71[a] | COc1ccc(CNc2nsc(C(=O)N(Cc3ccccc3C(C)C)C3CC3)c2Cl)cc1 [I-871]
4.90[a] | COc1ccc(CNc2nsc(C(=O)N(Cc3cc(C)cc(C)c3)C3CC3)c2Cl)cc1 [I-872]
4.17[a] | COc1ccc(CNc2nsc(C(=O)N(C3CC3)C(C)c3ccccc3)c2Cl)cc1 (stereo not drawn) [I-873]
5.14[a] | CCc1ccccc1C(C)N(C(=O)c1snc(NCc2ccc(OC)cc2)c1Cl)C1CC1 (stereo not drawn) [I-874]
4.85[a] | CCC(c1ccccc1)N(C(=O)c1snc(NCc2ccc(OC)cc2)c1Cl)C1CC1 (stereo not drawn) [I-875]

LogP | SMILES
4.77[a] | COc1ccc(CNc2nsc(C(=O)N(Cc3cc(C)ccc3C)C3CC3)c2Cl)cc1 [I-876]
4.07[a] | COc1ccc(CNc2nsc(C(=O)NCCc3ccccc3Cl)c2Cl)cc1 [I-877]
2.51[a] | Nc1nsc(C(=O)Nc2ccc(Cl)cc2)c1Cl [I-878]
2.28[a] | CC1OC(C)(C)c2cccc(NC(=O)c3snc(N)c3Cl)c21 (stereo not drawn) [I-879]
5.42[a] | COc1ccc(CNc2nsc(C(=O)Nc3cccc4c3C(C)CC4(C)C)c2Cl)cc1 (stereo not drawn) [I-880]
3.62[a] | COc1ccc(CNc2nsc(C(=O)Nc3ccccc3C#N)c2Cl)cc1 [I-881]
4.63[a] | COc1ccc(CNc2nsc(C(=O)Nc3ccc(C)c(Cl)c3)c2Cl)cc1 [I-882]
1.86[a] | COc1ccc(CNc2nsc(C(=O)NS(C)(=O)=O)c2Cl)cc1 [I-883]
0.32[a] | CNC(=O)c1snc(N)c1Cl [I-884]
3.62[a] | CC1CC(C)(C)c2cccc(NC(=O)c3snc(N)c3Cl)c21 (stereo not drawn) [I-885]
2.73[a] | CC(c1ccccc1)N(C(=O)c1snc(N)c1Cl)C1CC1 (stereo not drawn) [I-886]
3.37[a] | CCc1ccccc1C(C)N(C(=O)c1snc(N)c1Cl)C1CC1 (stereo not drawn) [I-887]
3.11[a] | CCC(c1ccccc1)N(C(=O)c1snc(N)c1Cl)C1CC1 (stereo not drawn) [I-888]
5.11[a] | COc1ccc(CNc2nsc(C(=O)N(Cc3cc(C)c(C)cc3C)C3CC3)c2Cl)cc1 [I-889]
4.74[a] | CCc1ccccc1CN(C(=O)c1snc(NCc2ccc(OC)cc2)c1Cl)C1CC1 [I-890]
4.82[a] | COc1ccc(CNc2nsc(C(=O)N(Cc3c(C)cccc3C)C3CC3)c2Cl)cc1 [I-891]
4.80[a] | COc1ccc(CNc2nsc(C(=O)N(Cc3ccc(C)cc3C)C3CC3)c2Cl)cc1 [I-892]
4.67[a] | COc1ccc(CNc2nsc(C(=O)N(C3CCCCC3)C3CC3)c2Cl)cc1 [I-893]
4.85[a] | CCC(C)C(C)N(C(=O)c1snc(NCc2ccc(OC)cc2)c1Cl)C1CC1 (stereo not drawn) [I-894]
2.41[a] | Nc1nsc(C(=O)NCCc2ccccc2Cl)c1Cl [I-895]
4.14[a] | COc1ccc(CNc2nsc(C(=O)N(Cc3ccccc3)C3CC3)c2Cl)cc1 [I-897]
5.17[a] | CCc1cccc(C)c1CN(C(=O)c1snc(NCc2ccc(OC)cc2)c1Cl)C1CC1 [I-898]
5.25[a] | CCCC(c1ccccc1)N(C(=O)c1snc(NCc2ccc(OC)cc2)c1Cl)C1CC1 (stereo not drawn) [I-899]
4.09[a] | COc1ccc(CNc2nsc(C(=O)N(CC(C)C)C3CC3)c2Cl)cc1 [I-900]
